Assay results taken from ChEMBL document CHEMBL3399940, “Synthesis and antimalarial evaluation of prodrugs of novel fosmidomycin analogues” (Bioorg Med Chem Lett, 2015).

Legend:
[1] = test system: Plasmodium falciparum; assay: Antimalarial activity against chloroquine and mefloquine-resistant Plasmodium falciparum Dd2 after 48 hrs by SYBR Green I assay; assay type: functional
[2] = Cytotoxicity against human HepG2A16 cells after 24 hrs by MTT assay; assay type: cell-based; conditions: read-out: LD50
[3] = Plasmodium falciparum, Dd2, 48 h, read-out: IC50

| SMILES | IC50 [1] | CC50 at 24 h [2] | IC50 [1, 3] |
| --- | --- | --- | --- |
| CCOP(=O)(OCC)C1CCN(OCc2ccccc2)C(=O)C1 (centres undefined) | Not Active | 25600 nM |  |
| CC(C)(C)C(=O)OCOP(=O)(OCOC(=O)C(C)(C)C)C1CCN(O)C(=O)C1 (centres undefined) |  | 25600 nM | 27.4 nM |
| CC(C)(C)C(=O)OCOP(=O)(OCOC(=O)C(C)(C)C)C1CCCN(O)C(=O)C1 (centres undefined) |  | 20100 nM | 2240 nM |
| O[C@@H](c1cc(C(F)(F)F)nc2c(C(F)(F)F)cccc12)[C@H]1CCCCN1 [(S,R)-MEFLOQUINE] |  |  | 92 nM |
| CC(=O)N(O)CCCP(=O)(OCOC(=O)C(C)(C)C)OCOC(=O)C(C)(C)C |  |  | 272 nM |
| CC(=O)N(O)CCCP(=O)(O)O |  |  | 893 nM |
